In patent publication US20080269053A1, “Amino Acid Compositions and Methods of Using as Fertilizer” (priority 2007, published 2008):

Experiments:
[1] = tested on: Bermudagrass; assay: Turfgrass quality rating, Bermudagrass in golf course fairway conditions; format: in vivo, Cynodon spp.; conditions: monthly 0.5-3.0 lbs nitrogen/1000 sq ft
Description: (§1) Bermudagrass was grown and maintained in golf course fairway conditions. The bermudagrass was mown at a ½ inch height of cut and fertilized monthly between 0.5 and 3.0 lbs nitrogen per 1000 square feet. Lysine HCL and liquid lysine in aqueous solutions were compared with inorganic, quick release/response urea and the organic industry standard Milorganite. Urea, lysine HCl and liquid lysine were spray/liquid applied, while Milorganite was applied as a solid granular product.
Overall turf quality was rated weekly using a visual scale of 1-9 with 9 representing perfect turf (rarely attained, if ever). Ratings higher than 6.0 are considered acceptable while any rating below 6.0 is considered unacceptable. […] All fertilizers responded with acceptable turf ratings at all application rates, but lysine HCL trended better.
as §1, with “HCl applied as a solid granular was” for “HCL and liquid lysine in aqueous solutions were”, “Urea was” for “Urea, lysine HCl and liquid lysine were”
Lysine HCL was applied as a solid granular to compare with spray applied lysine HCL and liquid lysine. […]

[2] = tested on: Bermuda grass; assay: Turfgrass quality after true foliar application, Bermuda grass fairways; format: in vivo, Cynodon spp.; conditions: mean over seven weeks
Source text: (§2) True foliar applications were studied with Tall Fescue grass. Normal foliar rates of 0.5, 1.0 and 3.0 lb nitrogen per 1000 sq ft were used with water volumes in the range of 0.5 to 2.0 gallons per 1000 sq ft (for comparison non-foliar, normal liquid spray applications are typically more than 4.0 gallons of water per 1000 sq ft.) Results are presented in FIG. 15 for mean data taken during a 5 week period. […] However, as true application rates are ⅛ the 1× rate, burn potential for foliar applications is limited.
(§3) True foliar applications were studied with Bermuda grass in Fairways at the rates used in EXAMPLE 9. Results for mean data averaged over seven weeks for burn rate and turfgrass quality are presented in FIGS. 17 and 18, respectively. […] Lysine HCl had 3-5% burn levels depending upon the rate of application.

[3] = tested on: Creeping bentgrass; assay: Phytotoxicity rating, creeping bentgrass fairways; format: in vivo, Agrostis
Source text: Creeping bentgrass is a major choice for fairways, golf greens and tees in the cool-temperate zone. It has the ability to withstand close mowing and is very “aggressive” which allows for quick recovery from injuries. Creeping bentgrass was fertilized in Fairways substantially the same as described in example 1 at three different rates: half, full and 3× normal rates (0.5, 1.0 and 3.0 lbs nitrogen/1000/month) applied on a monthly basis. Turfgrass quality ratings were taken every month from June through November along with “color” and “phytotoxicity” ratings. Turfgrass quality and toxicity were measured on a 1-9 visual basis with 9 representing the highest quality turf or most injury/burn to the turfgrass. Fairways toxicity ratings and turfgrass quality ratings are shown in FIGS. 10 and 11, respectively. The most crucial months with regard to fertilizer application toxicity are the mid-summer months of July and August due to hotter and more humid conditions which typically amplify any potential for fertilizer “burn” injury.

[4] = tested on: Ultra-Dwarf Bermudagrass; assay: Turfgrass quality rating, Ultra-Dwarf Bermudagrass golf greens; format: in vivo, Cynodon spp.; conditions: normal 0.125 lb nitrogen/week rate
Source text: Ultra-dwarf bermudagrass is typically mown at ⅛ inch or lower and fertilized on a weekly basis which is termed “spoon feeding”. Lysine HCl, liquid lysine, Milogranite and urea were applied under substantially the same conditions as described in Example 1. Overall turf quality was rated weekly using a visual scale of 1-9 with 9 representing perfect turf. Ratings higher than 6.0 are considered acceptable while any rating below 6.0 is unacceptable.

[5] = tested on: St. Augustine grass; assay: Turfgrass quality rating, St. Augustine grass fertilized monthly; format: in vivo, Stenotaphrum secundatum
Source text: St. Augustine grass was fertilized monthly at rates of between 0.5 and 3.0 lbs nitrogen/1000 square feet with lysine HCL and Liquid Lysine, which were compared with inorganic, quick release/response urea and the organic industry standard Milorganite. Urea, lysine HCl, and liquid lysine were spray/liquid applied, while Milorganite was applied as a solid granular product.
Overall turf quality was rated weekly using a visual scale of 1-9 with 9 representing perfect turf. Ratings higher than 6.0 are considered acceptable, while any rating below 6.0 is unacceptable.

[6] = tested on: Creeping bentgrass; assay: Turfgrass quality rating, creeping bentgrass greens; format: in vivo, Agrostis; conditions: creeping bentgrass greens, 0.063, 0.125 and 0.25 lbs nitrogen/1000 sq ft bi-weekly
Description: (§4) Creeping bentgrass is a major choice for fairways, golf greens and tees in the cool-temperate zone. It has the ability to withstand close mowing and is very “aggressive” allowing for quick recovery from injuries. It was fertilized in greens at half, full and […] rate of application (0.063, 0.125 and 0.25 lbs nitrogen/1000 sq ft) on a bi-weekly basis. Turfgrass quality and toxicity were measured on a 1-9 visual basis, with 9 representing the highest quality turf or the most injury respectively. Fairways toxicity ratings and turfgrass quality ratings are shown in FIGS. 12 and 13, respectively.

[7] = tested on: Kentucky blue grass; assay: Turfgrass quality rating, Kentucky blue grass lawns; format: in vivo, Poa pratensis; conditions: 1.0 lb nitrogen per 1000 sq ft per month
Description: Kentucky blue grass is often used as a turfgrass species in the cool, temperature zone as a blend of varieties or within specialized “mixes” created for various geographical locations. In this embodiment, Kentucky blue grass was fertilized under a normal application rate of 1.0 lb nitrogen per 1000 sq ft per month in high quality, high maintenance lawns. Turfgrass quality and toxicity were measured on a 1-9 visual basis with 9 representing the highest quality turf or the most injury, respectively.

[8] = tested on: Creeping bentgrass; assay: Phytotoxicity rating, creeping bentgrass greens; format: in vivo, Agrostis; conditions: bi-weekly application
Description: as §4

[9] = tested on: Bermuda grass; assay: Burn after true foliar application, Bermuda grass fairways; format: in vivo, Cynodon spp.
Source text: as §2, §3

[10] = Solubility in water; format: physicochemical; conditions: 25° C., read-out: solubility in H2O
[11] = tested on: Creeping bentgrass; assay: Turfgrass quality after true foliar application, creeping bentgrass greens and tees; format: in vivo, Agrostis; conditions: averaged over six weeks
Source text: as §2
True foliar applications were studied with creeping bentgrass on greens and tees at the rates used in Example 9.

SMILES	overall turf quality (visual scale 1-9) ([1]; applied as solid granular)	total seasonal turfgrass quality (visual scale 1-9) ([1]; aqueous spray applied)	turfgrass quality rating [2]	phytotoxicity (injury) rating, visual 1-9 ([3]; July)	overall turf quality performance [4]	overall turfgrass quality and residual activity ([5]; half-rate of 0.5 lb nitrogen, ratings higher than 6.0 acceptable)	overall turfgrass quality (visual scale 1-9) ([5]; monthly 0.5-3.0 lbs nitrogen/1000 sq ft, spray applied, growing season, versus urea and Milorganite)	overall turfgrass quality rating ([5]; standard 1.0 lb nitrogen rate, compared to urea and milorganite)	turfgrass quality rating [6]	turfgrass quality [7]	toxicity rating, visual 1-9 ([8]; June and July)	burn level ([9]; depending upon rate of application, mean over seven weeks)	burn potential ([9]; turfgrasses recover quickly)	solubility [10] [mg/mL]	turfgrass quality rating [11]	phytotoxicity (injury) rating, visual 1-9 ([3]; August)	toxicity rating, visual 1-9 ([8]; August)
Cl.NCCCC[C@H](N)C(=O)O [lysine HCl, lysine monohydrochloride]	as effective as or more effective than Milorganite and urea	seasonally better turfgrass quality at all rates tested compared to urea and milorganite	better than Coron and control plots	insignificant level of injury	statistically the same as that of urea	acceptable overall turfgrass quality and residual activity	trended better than urea and milorganite	noticeably higher	slightly better than the blended synthetic products and Milogranite	marginally better than urea	Slight and insignificant levels of toxicity	3-5%	high burn potential	500 to 600	statistically equal qualities as Coron		
NC(N)=O [urea, reference compound]																significantly more injury than liquid lysine and lysine HCl	significantly higher toxicity levels
